Source: patent US9630977B2, “Cephalosporin derivatives and pharmaceutical compositions thereof” (Legochem Biosciences, Inc., priority 2011, dated 2017)
Converted amounts (≈) assume the structure as drawn.

Each molecule was assayed on A. baumannii 46 (assay: In vitro antibacterial activity test (broth microdilution)). Settings: Acinetobacter baumannii; A. baumannii 46; read-out: MIC90.
Type: cell-based
Protocol: (§1) To evaluate antibacterial activity of each of the compounds of Examples 1 to 68, in vitro antibacterial activity test was performed.
(§2) The in vitro antibacterial activity was evaluated by measuring MIC90 (ug/mL) of each of the compounds of Examples 1 to 68, which is defined as the lowest concentration of an antibiotic that will inhibit the visible growth of 90% of microorganisms after incubation as compared with a control group to which the antibiotic is not treated. MIC90 values were measured by the broth microdilution method developed by the Clinical and Laboratory Standards Institute (CLSI) (see CLSI M7-A5, Methods for Dilution Antimicrobial Susceptibility Test for Bacteria that Grow Aerobically-Fifth Edition (2000): CLSI, Villanova, Pa.).
(§3) In vitro antibacterial activity was measured with respect to the following 19 clinical isolates: M. catarrhalis; P. aeruginosa (5 strains); K. pneumoniae (6 strains); A. baumannii (3 strains); E. coli (2 strains); A. calcoaceticus; and E. cloacae.
(§4) Test compounds each (the cephalosporin derivative compounds prepared in Examples 1 to 68) were dissolved in DMSO at the concentration of 10,240 ug/mL, were diluted by two fold with DMSO, and then were diluted by twenty fold with sterilized distilled water. The final concentration in the antibacterial activity test was in the range of […] to 128 ug/mL, and the final concentration of DMSO used as an adjuvant was 2.5% (V/V).
Work on `CC(C)(O/N=C(\C(=O)N[C@@H]1C(=O)N2C(C(=O)[O-])=C(C[n+]3cnc(N)c(NCCNC(=O)c4cc(=O)c(O)cn4O)c3)CSC12)c1csc(N)n1)C(=O)O` (stereo partly shown) [Compound 1] yielded an MIC90 of 4 µg/mL (≈ 5.17 µM).

What follows are molecules tested on A. baumannii 49 in the same assay as above. Settings: Acinetobacter baumannii; A. baumannii 49; read-out: MIC90.
Type: cell-based
Protocol: as §1, §2, §3, §4
With `CC(C)(O/N=C(\C(=O)N[C@@H]1C(=O)N2C(C(=O)[O-])=C(C[n+]3cnc(N)c(NCCNC(=O)c4cc(=O)c(O)cn4O)c3)CSC12)c1csc(N)n1)C(=O)O` (stereo partly shown) [Compound 1] the MIC90 was 16 µg/mL (≈ 20.7 µM).

The molecules below were run on A. baumannii 52 in the same assay as above. Settings: Acinetobacter baumannii; A. baumannii 52; read-out: MIC90.
Type: cell-based
Protocol: as §1, §2, §3, §4
In the case of `CC(C)(O/N=C(\C(=O)N[C@@H]1C(=O)N2C(C(=O)[O-])=C(C[n+]3cnc(N)c(NCCNC(=O)c4cc(=O)c(O)cn4O)c3)CSC12)c1csc(N)n1)C(=O)O` (stereo partly shown) [Compound 1], the MIC90 is reported as 32 µg/mL (≈ 41.4 µM).

What follows are molecules tested on A. calcoaceticus ATCC15473 in the same assay as above. Settings: Acinetobacter calcoaceticus; A. calcoaceticus ATCC15473; read-out: MIC90.
Type: cell-based
Protocol: as §1, §2, §3, §4
In the case of `CC(C)(O/N=C(\C(=O)N[C@@H]1C(=O)N2C(C(=O)[O-])=C(C[n+]3cnc(N)c(NCCNC(=O)c4cc(=O)c(O)cn4O)c3)CSC12)c1csc(N)n1)C(=O)O` (stereo partly shown) [Compound 1], the MIC90 is reported as 0.5 µg/mL (≈ 0.646 µM).

The molecules below were run on E. cloacae β19 in the same assay as above. Settings: Enterobacter cloacae, read-out: MIC90.
Type: cell-based
Protocol: as §1, §2, §3, §4
`CC(C)(O/N=C(\C(=O)N[C@@H]1C(=O)N2C(C(=O)[O-])=C(C[n+]3cnc(N)c(NCCNC(=O)c4cc(=O)c(O)cn4O)c3)CSC12)c1csc(N)n1)C(=O)O` (stereo partly shown) [Compound 1] was tested, and the MIC90 was 2 µg/mL (≈ 2.58 µM).

These molecules were tested on E. coli AG100 in the same assay as above. Settings: Escherichia coli, AG100, E. coli AG100; read-out: MIC90.
Type: cell-based
Protocol: as §1, §2, §3, §4
For `CC(C)(O/N=C(\C(=O)N[C@@H]1C(=O)N2C(C(=O)[O-])=C(C[n+]3cnc(N)c(NCCNC(=O)c4cc(=O)c(O)cn4O)c3)CSC12)c1csc(N)n1)C(=O)O` (stereo partly shown) [Compound 1], the MIC90 was under 0.0625 µg/mL.

These molecules were tested on E. coli β4 in the same assay as above. Settings: Escherichia coli, read-out: MIC90.
Type: cell-based
Protocol: as §1, §2, §3, §4
`CC(C)(O/N=C(\C(=O)N[C@@H]1C(=O)N2C(C(=O)[O-])=C(C[n+]3cnc(N)c(NCCNC(=O)c4cc(=O)c(O)cn4O)c3)CSC12)c1csc(N)n1)C(=O)O` (stereo partly shown) [Compound 1] showed an MIC90 of 2 µg/mL (≈ 2.58 µM).

These molecules were tested on K. pneumoniae 2011E in the same assay as above. Settings: Klebsiella pneumoniae, 2011E, K. pneumoniae 2011E; read-out: MIC90.
Type: cell-based
Protocol: as §1, §2, §3, §4
`CC(C)(O/N=C(\C(=O)N[C@@H]1C(=O)N2C(C(=O)[O-])=C(C[n+]3cnc(N)c(NCCNC(=O)c4cc(=O)c(O)cn4O)c3)CSC12)c1csc(N)n1)C(=O)O` (stereo partly shown) [Compound 1] showed an MIC90 of 2 µg/mL (≈ 2.58 µM).

Each molecule was assayed on K. pneumoniae β10 in the same assay as above. Settings: Klebsiella pneumoniae; K. pneumoniae β10; read-out: MIC90.
Type: cell-based
Protocol: as §1, §2, §3, §4
`CC(C)(O/N=C(\C(=O)N[C@@H]1C(=O)N2C(C(=O)[O-])=C(C[n+]3cnc(N)c(NCCNC(=O)c4cc(=O)c(O)cn4O)c3)CSC12)c1csc(N)n1)C(=O)O` (stereo partly shown) [Compound 1] was tested, and the MIC90 was 0.125 µg/mL (≈ 0.162 µM).

The molecules below were run on K. pneumoniae β11 in the same assay as above. Settings: Klebsiella pneumoniae; K. pneumoniae β11; read-out: MIC90.
Type: cell-based
Protocol: as §1, §2, §3, §4
For `CC(C)(O/N=C(\C(=O)N[C@@H]1C(=O)N2C(C(=O)[O-])=C(C[n+]3cnc(N)c(NCCNC(=O)c4cc(=O)c(O)cn4O)c3)CSC12)c1csc(N)n1)C(=O)O` (stereo partly shown) [Compound 1], the MIC90 was 128 µg/mL (≈ 165 µM).

These molecules were tested on K. pneumoniae β13 in the same assay as above. Settings: Klebsiella pneumoniae, K. pneumoniae β13; read-out: MIC90.
Type: cell-based
Protocol: as §1, §2, §3, §4
For `CC(C)(O/N=C(\C(=O)N[C@@H]1C(=O)N2C(C(=O)[O-])=C(C[n+]3cnc(N)c(NCCNC(=O)c4cc(=O)c(O)cn4O)c3)CSC12)c1csc(N)n1)C(=O)O` (stereo partly shown) [Compound 1], the MIC90 was 0.5 µg/mL (≈ 0.646 µM).

What follows are molecules tested on K. pneumoniae β14 in the same assay as above. Settings: Klebsiella pneumoniae, read-out: MIC90.
Type: cell-based
Protocol: as §1, §2, §3, §4
In the case of `CC(C)(O/N=C(\C(=O)N[C@@H]1C(=O)N2C(C(=O)[O-])=C(C[n+]3cnc(N)c(NCCNC(=O)c4cc(=O)c(O)cn4O)c3)CSC12)c1csc(N)n1)C(=O)O` (stereo partly shown) [Compound 1], the MIC90 is reported as 128 µg/mL (≈ 165 µM).

These molecules were tested on K. pneumoniae β9 in the same assay as above. Settings: Klebsiella pneumoniae, K. pneumoniae β9; read-out: MIC90.
Type: cell-based
Protocol: as §1, §2, §3, §4
Work on `CC(C)(O/N=C(\C(=O)N[C@@H]1C(=O)N2C(C(=O)[O-])=C(C[n+]3cnc(N)c(NCCNC(=O)c4cc(=O)c(O)cn4O)c3)CSC12)c1csc(N)n1)C(=O)O` (stereo partly shown) [Compound 1] yielded an MIC90 of 4 µg/mL (≈ 5.17 µM).

These molecules were tested on M. catarrhalis 2524 in the same assay as above. Settings: Moraxella catarrhalis; M. catarrhalis 2524; read-out: MIC90.
Type: cell-based
Protocol: as §1, §2, §3, §4
Molecule `CC(C)(O/N=C(\C(=O)N[C@@H]1C(=O)N2C(C(=O)[O-])=C(C[n+]3cnc(N)c(NCCNC(=O)c4cc(=O)c(O)cn4O)c3)CSC12)c1csc(N)n1)C(=O)O` (stereo partly shown) [Compound 1] has an MIC90 of 1 µg/mL (≈ 1.29 µM).

These molecules were tested on P. aeruginosa 1912E in the same assay as above. Settings: Pseudomonas aeruginosa, 1912E, read-out: MIC90.
Type: cell-based
Protocol: as §1, §2, §3, §4
`CC(C)(O/N=C(\C(=O)N[C@@H]1C(=O)N2C(C(=O)[O-])=C(C[n+]3cnc(N)c(NCCNC(=O)c4cc(=O)c(O)cn4O)c3)CSC12)c1csc(N)n1)C(=O)O` (stereo partly shown) [Compound 1] was tested, and the MIC90 was 0.25 µg/mL (≈ 0.323 µM).

These molecules were tested on P. aeruginosa 37 in the same assay as above. Settings: Pseudomonas aeruginosa, 37, P. aeruginosa 37; read-out: MIC90.
Type: cell-based
Protocol: as §1, §2, §3, §4
`CC(C)(O/N=C(\C(=O)N[C@@H]1C(=O)N2C(C(=O)[O-])=C(C[n+]3cnc(N)c(NCCNC(=O)c4cc(=O)c(O)cn4O)c3)CSC12)c1csc(N)n1)C(=O)O` (stereo partly shown) [Compound 1] showed an MIC90 of 0.5 µg/mL (≈ 0.646 µM).

Each molecule was assayed on P. aeruginosa 40 in the same assay as above. Settings: Pseudomonas aeruginosa, 40, P. aeruginosa 40; read-out: MIC90.
Type: cell-based
Protocol: as §1, §2, §3, §4
`CC(C)(O/N=C(\C(=O)N[C@@H]1C(=O)N2C(C(=O)[O-])=C(C[n+]3cnc(N)c(NCCNC(=O)c4cc(=O)c(O)cn4O)c3)CSC12)c1csc(N)n1)C(=O)O` (stereo partly shown) [Compound 1] was tested, and the MIC90 was 0.25 µg/mL (≈ 0.323 µM).

These molecules were tested on P. aeruginosa 43 in the same assay as above. Settings: Pseudomonas aeruginosa; P. aeruginosa 43; read-out: MIC90.
Type: cell-based
Protocol: as §1, §2, §3, §4
For `CC(C)(O/N=C(\C(=O)N[C@@H]1C(=O)N2C(C(=O)[O-])=C(C[n+]3cnc(N)c(NCCNC(=O)c4cc(=O)c(O)cn4O)c3)CSC12)c1csc(N)n1)C(=O)O` (stereo partly shown) [Compound 1], the MIC90 was 0.25 µg/mL (≈ 0.323 µM).

The molecules below were run on P. aeruginosa 6065Y in the same assay as above. Settings: Pseudomonas aeruginosa, read-out: MIC90.
Type: cell-based
Protocol: as §1, §2, §3, §4
`CC(C)(O/N=C(\C(=O)N[C@@H]1C(=O)N2C(C(=O)[O-])=C(C[n+]3cnc(N)c(NCCNC(=O)c4cc(=O)c(O)cn4O)c3)CSC12)c1csc(N)n1)C(=O)O` (stereo partly shown) [Compound 1] showed an MIC90 of 1 µg/mL (≈ 1.29 µM).
